These results are taken from patent US12396936B2, “Antimicrobial composition for tackling malodour” (Conopco, Inc., priority 2020, dated 2025).

This assay deals with S. hominis ATCC 27844. The assay is described as follows: Malodour assay using Lead acetate method (H2S blackening of lead acetate paper, ΔE by reflectometer). The class given is cell-based. The settings on record: active wt % as printed per example; TSB with 0.1% L-cysteine-HCl, 37° C. overnight, triplicates; calculated from ΔE; control = 100. As for the experimental part:
The actives as shown in Table—1 below were subjected to malodour reduction assay as described below: • Malodour assay using Lead acetate method: Preparation of Bacterial Culture:
The test organisms was grown on TSA (Tryptic Soya Agar) plates overnight (22±2 hr). The organism was not more than 3 passages removed from the original source. The cell number was adjusted by re-suspending it in a suitable amount of physiological saline sufficient to achieve the required cell number based on optical density of the cells. The optical density (OD at 620 nm) of the cells were standardized to the cell number for the test organism using a spectrophotometer. A minimum final suspension of 1.0×10^8 CFU/mL was achieved by adjusting the OD to 0.2 in saline for the malodour assay.
A 1% Lead acetate solution was made in distilled water. […]
The malodour assay was adapted from the method of Moore et al, 2003 and modified into a 96 well plate format. […] The intensity of the colour was recorded using a reflectometer as L*a*b* values.
The difference between the initial and final L*a*b* values ΔE, was used to quantify malodour formation.) ΔE=√{square root over ((Li−Lf)^2+(ai−af)^2+(bi−bf)^2)}
The percentage malodour was calculated from ΔE measured using the above assay for the various actives or combinations.

Turning to `CCCCCCc1ccc(O)cc1O` [B, Hexyl resorcinol], the “Malodour generation (%)” value was 96%.
